Assay results published in patent US20230148214A1, “INDAZOLES AND AZAINDAZOLES AS LRRK2 INHIBITORS” (ESCAPE Bio, Inc., priority 2020, published 2023).

Tests used:
LRRK2 WT = target: T1, LRRK2 WT (Homo sapiens, UniProt Q5S007); assay: LRRK2 Kinase Activity Assay (LanthaScreen TR-FRET), wild type; type: biochemical; settings: recombinant wild type LRRK2, 25 μM ATP, 400 nM LRRKtide, 60 min; class symbols
T1 construct: purchased Life Technologies PR8604B
Outline: (§1)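 Recombinant wild-type or G2019S LRRK2 incubated with fluorescein-labeled LRRKtide (ERM-based) peptide, ATP and serially diluted compound for 60 min at room temperature.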

LRRK2 G2019S = target: T2, LRRK2 G2019S (Homo sapiens, UniProt Q5S007, G2019S); assay: LRRK2 Kinase Activity Assay (LanthaScreen TR-FRET), G2019S; type: biochemical; settings: recombinant G2019S-LRRK2, 25 μM ATP, 400 nM LRRKtide, 60 min; class symbols
T2 construct: purchased Life Technologies PV4881
T2 sequence (Q5S007 whole entry G2019S): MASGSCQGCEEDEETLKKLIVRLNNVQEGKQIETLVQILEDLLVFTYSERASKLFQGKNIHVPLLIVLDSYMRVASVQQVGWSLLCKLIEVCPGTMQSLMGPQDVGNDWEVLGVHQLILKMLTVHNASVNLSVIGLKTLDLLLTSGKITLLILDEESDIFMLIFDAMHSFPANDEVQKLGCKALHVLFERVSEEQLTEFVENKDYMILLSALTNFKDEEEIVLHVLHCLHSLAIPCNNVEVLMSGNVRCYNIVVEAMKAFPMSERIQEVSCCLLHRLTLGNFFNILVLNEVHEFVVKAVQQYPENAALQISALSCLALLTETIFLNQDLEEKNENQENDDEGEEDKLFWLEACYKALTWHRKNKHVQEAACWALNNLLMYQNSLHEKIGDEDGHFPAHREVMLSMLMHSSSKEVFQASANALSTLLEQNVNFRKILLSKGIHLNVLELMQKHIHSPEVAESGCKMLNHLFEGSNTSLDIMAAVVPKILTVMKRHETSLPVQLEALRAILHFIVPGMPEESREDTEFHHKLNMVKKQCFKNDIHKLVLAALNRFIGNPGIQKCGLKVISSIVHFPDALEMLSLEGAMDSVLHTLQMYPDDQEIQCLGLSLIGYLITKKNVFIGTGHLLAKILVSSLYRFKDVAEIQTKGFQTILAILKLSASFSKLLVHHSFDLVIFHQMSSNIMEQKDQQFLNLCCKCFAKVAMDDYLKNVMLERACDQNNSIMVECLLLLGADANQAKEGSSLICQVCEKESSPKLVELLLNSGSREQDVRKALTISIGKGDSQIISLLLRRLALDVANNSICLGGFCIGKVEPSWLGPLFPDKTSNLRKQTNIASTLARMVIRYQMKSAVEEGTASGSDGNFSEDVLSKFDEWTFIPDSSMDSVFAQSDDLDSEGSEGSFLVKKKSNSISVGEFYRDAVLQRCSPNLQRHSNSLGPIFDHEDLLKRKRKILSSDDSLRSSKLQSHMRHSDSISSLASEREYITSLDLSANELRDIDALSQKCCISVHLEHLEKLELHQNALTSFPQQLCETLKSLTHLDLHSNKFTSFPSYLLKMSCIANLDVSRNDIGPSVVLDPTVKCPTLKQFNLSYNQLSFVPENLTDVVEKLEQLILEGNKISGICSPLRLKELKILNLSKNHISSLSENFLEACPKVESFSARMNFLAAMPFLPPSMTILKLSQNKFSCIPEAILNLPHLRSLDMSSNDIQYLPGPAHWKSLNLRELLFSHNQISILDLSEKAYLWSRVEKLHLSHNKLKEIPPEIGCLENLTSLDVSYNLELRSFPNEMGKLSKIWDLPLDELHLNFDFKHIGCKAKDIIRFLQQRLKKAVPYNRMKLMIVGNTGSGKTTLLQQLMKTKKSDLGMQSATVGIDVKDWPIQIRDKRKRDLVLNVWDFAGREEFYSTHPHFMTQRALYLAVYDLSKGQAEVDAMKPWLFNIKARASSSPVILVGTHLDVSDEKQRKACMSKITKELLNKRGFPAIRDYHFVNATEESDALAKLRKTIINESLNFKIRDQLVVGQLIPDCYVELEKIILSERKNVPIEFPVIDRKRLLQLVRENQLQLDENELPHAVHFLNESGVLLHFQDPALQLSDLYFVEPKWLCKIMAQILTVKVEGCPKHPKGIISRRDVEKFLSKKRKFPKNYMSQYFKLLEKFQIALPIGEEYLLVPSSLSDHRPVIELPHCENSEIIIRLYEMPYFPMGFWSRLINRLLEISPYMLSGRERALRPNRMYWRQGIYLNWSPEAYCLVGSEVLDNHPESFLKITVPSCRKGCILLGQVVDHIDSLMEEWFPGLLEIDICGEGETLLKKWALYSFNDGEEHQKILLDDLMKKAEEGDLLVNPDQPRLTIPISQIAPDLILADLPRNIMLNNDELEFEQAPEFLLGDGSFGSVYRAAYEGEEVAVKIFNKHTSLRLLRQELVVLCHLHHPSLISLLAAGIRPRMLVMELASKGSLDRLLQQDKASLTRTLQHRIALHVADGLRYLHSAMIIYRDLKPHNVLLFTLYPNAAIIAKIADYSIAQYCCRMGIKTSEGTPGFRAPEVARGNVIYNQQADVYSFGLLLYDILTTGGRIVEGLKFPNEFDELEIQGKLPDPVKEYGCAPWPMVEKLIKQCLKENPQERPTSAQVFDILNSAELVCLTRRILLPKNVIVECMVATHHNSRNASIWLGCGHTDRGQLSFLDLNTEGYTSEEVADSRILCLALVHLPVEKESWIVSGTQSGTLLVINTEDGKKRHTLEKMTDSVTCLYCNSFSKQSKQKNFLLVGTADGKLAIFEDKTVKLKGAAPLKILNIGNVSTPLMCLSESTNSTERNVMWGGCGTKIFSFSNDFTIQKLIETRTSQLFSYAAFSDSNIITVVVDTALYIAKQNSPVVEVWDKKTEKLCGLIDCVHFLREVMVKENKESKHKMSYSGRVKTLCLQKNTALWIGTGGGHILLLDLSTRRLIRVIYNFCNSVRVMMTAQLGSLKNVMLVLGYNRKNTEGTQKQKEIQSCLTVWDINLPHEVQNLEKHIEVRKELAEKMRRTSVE
Outline: as §1

T1 sequence (Q5S007 whole entry): as the sequence (Q5S007 whole entry G2019S) above, with S2019G counted along it

IC50 (LRRK2 WT) | IC50 (LRRK2 G2019S) | Structure (SMILES)
100 to 1000 nM | < 100 nM | N#Cc1ccc2c(c1)CCC[C@H]2Nc1ccc2[nH]nc(-c3cnco3)c2c1 (single isomer, unassigned) [Example 119, enantiomer 1, 5-((3-(Oxazol-5-yl)-1H-indazol-5-yl)amino)-5,6,7,8-tetrahydronaphthalene-2-carbonitrile]
< 100 nM | < 100 nM | N#Cc1cnc2c(c1)CCC[C@H]2Nc1ccc2[nH]nc(-c3cnco3)c2c1 (single isomer, unassigned) [Example 120, enantiomer 1, 8-((3-(Oxazol-5-yl)-1H-indazol-5-yl)amino)-5,6,7,8-tetrahydroquinoline-3-carbonitrile]
< 100 nM | < 100 nM | CCc1cc(-c2n[nH]c3ccc(O[C@@H]4CCCc5cc(C#N)cnc54)cc23)ccn1 (single isomer, unassigned) [Example 121, enantiomer 1, 8-((3-(2-Ethylpyridin-4-yl)-1H-indazol-5-yl)oxy)-5,6,7,8-tetrahydroquinoline-3-carbonitrile]
100 to 1000 nM | < 100 nM | N#Cc1cc2c(cn1)[C@H](Oc1ccc3[nH]nc(-c4cnco4)c3c1)CCC2 (single isomer, unassigned) [Example 122, enantiomer 1, 8-((3-(Oxazol-5-yl)-1H-indazol-5-yl)oxy)-5,6,7,8-tetrahydroisoquinoline-3-carbonitrile]
< 100 nM | < 100 nM | COc1cc(-c2n[nH]c3ccc(O[C@H]4CCCc5cc(C#N)cnc54)cc23)ccn1 (single isomer, unassigned) [Example 123, enantiomer 1, 8-((3-(2-Methoxypyridin-4-yl)-1H-indazol-5-yl)oxy)-5,6,7,8-tetrahydroquinoline-3-carbonitrile]
100 to 1000 nM | < 100 nM | N#Cc1ccc2c(c1)CC[C@@H]2Oc1ccc2[nH]nc(C3CC3)c2c1 (single isomer, unassigned) [Example 124, enantiomer 1, 1-((3-Cyclopropyl-1H-indazol-5-yl)oxy)-2,3-dihydro-1H-indene-5-carbonitrile]
100 to 1000 nM | < 100 nM | N#Cc1cnc2c(c1)CCC[C@@H]2Nc1ccc2[nH]nc(Br)c2c1 (single isomer, unassigned) [Example 125, enantiomer 1, 8-((3-Bromo-1H-indazol-5-yl)amino)-5,6,7,8-tetrahydroquinoline-3-carbonitrile]
1000 to 10000 nM | 100 to 1000 nM | N#Cc1cnc2c(c1)CCC[C@@H]2Nc1ccc2[nH]nc(Br)c2c1 (single isomer, unassigned) [Example 125, enantiomer 2, 8-((3-Bromo-1H-indazol-5-yl)amino)-5,6,7,8-tetrahydroquinoline-3-carbonitrile]
1000 to 10000 nM | 1000 to 10000 nM | N#Cc1cnc2c(c1)CCC[C@@H]2Nc1ccc2[nH]nc(Cl)c2c1 (single isomer, unassigned) [Example 126, enantiomer 1, 8-((3-Chloro-1H-indazol-5-yl)amino)-5,6,7,8-tetrahydroquinoline-3-carbonitrile]
100 to 1000 nM | < 100 nM | N#Cc1cnc2c(c1)CCC[C@@H]2Nc1ccc2[nH]nc(Cl)c2c1 (single isomer, unassigned) [Example 126, enantiomer 2, 8-((3-Chloro-1H-indazol-5-yl)amino)-5,6,7,8-tetrahydroquinoline-3-carbonitrile]
100 to 1000 nM | 100 to 1000 nM | Cc1c(C#N)ccc2c1CC[C@@H]2Nc1ccc2[nH]nc(I)c2c1 (single isomer, unassigned) [Example 127, enantiomer 1, 1-((3-Iodo-1H-indazol-5-yl)amino)-4-methyl-2,3-dihydro-1H-indene-5-carbonitrile]
100 to 1000 nM | 100 to 1000 nM | N#Cc1ccc2c(c1)CC[C@H]2Nc1ccc2[nH]nc(I)c2c1 (single isomer, unassigned) [Example 128, enantiomer 1, 1-((3-Iodo-1H-indazol-5-yl)amino)-2,3-dihydro-1H-indene-5-carbonitrile]
100 to 1000 nM | < 100 nM | N#Cc1ccc2c(c1)CC[C@H]2Nc1ccc2[nH]nc(I)c2c1 (single isomer, unassigned) [Example 128, enantiomer 2, 1-((3-Iodo-1H-indazol-5-yl)amino)-2,3-dihydro-1H-indene-5-carbonitrile]
1000 to 10000 nM | 100 to 1000 nM | Cc1n[nH]c2ccc(N[C@H]3CCc4c(C#N)cccc43)cc12 (single isomer, unassigned) [Example 129, enantiomer 1, 1-((3-Methyl-1H-indazol-5-yl)amino)-2,3-dihydro-1H-indene-4-carbonitrile]
1000 to 10000 nM | 100 to 1000 nM | Cc1n[nH]c2ccc(N[C@H]3CCc4ccc(C#N)cc43)cc12 (single isomer, unassigned) [Example 130, enantiomer 1, 3-((3-Methyl-1H-indazol-5-yl)amino)-2,3-dihydro-1H-indene-5-carbonitrile]
100 to 1000 nM | < 100 nM | Cc1n[nH]c2ccc(N[C@H]3CCc4ccc(C#N)cc43)cc12 (single isomer, unassigned) [Example 130, enantiomer 2, 3-((3-Methyl-1H-indazol-5-yl)amino)-2,3-dihydro-1H-indene-5-carbonitrile]
< 100 nM | < 100 nM | Cc1cc(C#N)cc2c1[C@@H](Nc1ccc3[nH]nc(-c4cnco4)c3c1)CC2 (single isomer, unassigned) [Example 131, enantiomer 1, 7-Methyl-1-((3-(oxazol-5-yl)-1H-indazol-5-yl)amino)-2,3-dihydro-1H-indene-5-carbonitrile]
< 100 nM | < 100 nM | N#Cc1cc(F)c2c(c1)CC[C@H]2Nc1ccc2[nH]nc(-c3cnco3)c2c1 (single isomer, unassigned) [Example 132, enantiomer 1, 5-((5-Cyano-7-fluoro-2,3-dihydro-1H-inden-1-yl)amino)-3-(oxazol-5-yl)-1H-indazol-2-ium]
1000 to 10000 nM | 100 to 1000 nM | N#Cc1ccc2c(n1)CCC[C@H]2Oc1ccc2[nH]nc(C3CC3)c2c1 (single isomer, unassigned) [Example 133, enantiomer 1, 5-((3-Cyclopropyl-1H-indazol-5-yl)oxy)-5,6,7,8-tetrahydroquinoline-2-carbonitrile]
1000 to 10000 nM | < 100 nM | N#Cc1ccc2c(n1)CCC[C@H]2Oc1ccc2[nH]nc(C3CC3)c2c1 (single isomer, unassigned) [Example 133, enantiomer 2, 5-((3-Cyclopropyl-1H-indazol-5-yl)oxy)-5,6,7,8-tetrahydroquinoline-2-carbonitrile]
1000 to 10000 nM | 100 to 1000 nM | N#Cc1ccc2c(c1)CC[C@@H]2Nc1ccc2[nH]nc(C3CC3)c2c1 (single isomer, unassigned) [Example 134, enantiomer 1, 1-((3-Cyclopropyl-1H-indazol-5-yl)amino)-2,3-dihydro-1H-indene-5-carbonitrile]
1000 to 10000 nM | 100 to 1000 nM | N#Cc1ccc2c(c1)CC[C@@H]2Nc1ccc2[nH]nc(C3CC3)c2c1 (single isomer, unassigned) [Example 134, enantiomer 2, 1-((3-Cyclopropyl-1H-indazol-5-yl)amino)-2,3-dihydro-1H-indene-5-carbonitrile]
100 to 1000 nM | < 100 nM | N#Cc1ccc2c(n1)CCC[C@@H]2Oc1ccc2[nH]nc(I)c2c1 (single isomer, unassigned) [Example 135, enantiomer 1, 5-((3-Iodo-1H-indazol-5-yl)oxy)-5,6,7,8-tetrahydroquinoline-2-carbonitrile]
100 to 1000 nM | < 100 nM | N#Cc1ccc2c(n1)CCC[C@@H]2Oc1ccc2[nH]nc(I)c2c1 (single isomer, unassigned) [Example 135, enantiomer 2, 5-((3-Iodo-1H-indazol-5-yl)oxy)-5,6,7,8-tetrahydroquinoline-2-carbonitrile]
100 to 1000 nM | < 100 nM | N#Cc1cnc2c(c1)CCC[C@@H]2Oc1ccc2[nH]nc(C3CC3)c2c1 (single isomer, unassigned) [Example 136, enantiomer 1, 8-((3-Cyclopropyl-1H-indazol-5-yl)oxy)-5,6,7,8-tetrahydroquinoline-3-carbonitrile]
< 100 nM | < 100 nM | N#Cc1cnc2c(c1)CCC[C@@H]2Oc1ccc2[nH]nc(I)c2c1 (single isomer, unassigned) [Example 137, enantiomer 1, 8-((3-Iodo-1H-indazol-5-yl)oxy)-5,6,7,8-tetrahydroquinoline-3-carbonitrile]
100 to 1000 nM | < 100 nM | N#Cc1cnc2c(c1)CCC[C@@H]2Oc1ccc2[nH]nc(I)c2c1 (single isomer, unassigned) [Example 137, enantiomer 2, 8-((3-Iodo-1H-indazol-5-yl)oxy)-5,6,7,8-tetrahydroquinoline-3-carbonitrile]
< 100 nM | < 100 nM | N#Cc1ccc2c(c1)C(F)(F)C[C@@H]2Nc1ccc2[nH]nc(-c3cnco3)c2c1 (single isomer, unassigned) [Example 138, enantiomer 1, 3,3-Difluoro-1-((3-(oxazol-5-yl)-1H-indazol-5-yl)amino)-2,3-dihydro-1H-indene-5-carbonitrile]
100 to 1000 nM | < 100 nM | N#Cc1ccc2c(c1)C(F)(F)C[C@@H]2Nc1ccc2[nH]nc(-c3cnco3)c2c1 (single isomer, unassigned) [Example 138, enantiomer 2, 3,3-Difluoro-1-((3-(oxazol-5-yl)-1H-indazol-5-yl)amino)-2,3-dihydro-1H-indene-5-carbonitrile]
1000 to 10000 nM | 1000 to 10000 nM | N#Cc1ccc2c(c1)CCC[C@@H]2Nc1ccc2[nH]nc(CC3CC3)c2c1 (single isomer, unassigned) [Example 139, enantiomer 1, 5-((3-(Cyclopropylmethyl)-1H-indazol-5-yl)amino)-5,6,7,8-tetrahydronaphthalene-2-carbonitrile]
